# Where two headings read alike, the source gives them in different places.
# How the values were obtained:
# [1] = test system: HIF-1alpha
# Protocol: LNCaP is a citrate-producing cell (ATTC No. CRL-1740) while PC3 is citrate oxidizing cell (ATTC No. CRL-1435).
# Methods: Cells were plated at a density of 5×10^5 cells into a dish, and then maintained in 37° C. incubator (5% CO2) for 2 days. Prior to the assay, cells were rinsed twice with pre-warmed (37° C.) RPMI-1640 Medium (ATCC No. 30-2001; 10 mM HEPES; 1 mM sodium pyruvate; 2 mM L-glutamine; 4500 mg glucose/L; 1500 mg sodium bicarbonate/L). Cells were incubated with 2 mL culture medium in the absence or presence of lonidamine at different concentrations for 4 hours at 37° C. either under normoxia or hypoxia (oxygen level<0.1%). […] For nuclear extracts, cells were lysed with buffer A (10 mM Tris, pH7.5; 1.5 mM MgCl2; 10 mM KCl and protease inhibitors and buffer C (0.5 M NaCl; 20 mM Tris pH7.5; 1.5 mM MgCl2; 20% glycerol and protease inhibitors), sequentially. The protease inhibitors used in the experiments were a cocktail of five protease inhibitors (500 mM AEBSF-HCl, 1 mg/ml Aprotinin, 1 mM E-64, 500 mM EDTA and 1 mM Leupeptin; Calbiochem NO 539131). For whole cell lysate, cells were lysed with 150 mM NaCl; 10 mM Tris ph7.5; 10 mM EDTA; 1% Triton X-100; 0.5% Deoxycholate, and protease inhibitors. The protein concentration was measured using a Bio-Rad protein assay. […]
# [2] = test system: HIF-1alpha; conditions: PC3 cells, normoxic and hypoxic conditions, 4 hours; inhibition dose-dependent
# Protocol: Methods: Cells were plated at a density of 5×10^5 cells into a dish, and then maintained in 37° C. incubator (5% CO2) for 2 days. Prior to the assay, cells were rinsed twice with pre-warmed (37° C.) RPMI-1640 Medium (ATCC No. 30-2001; 10 mM HEPES; 1 mM sodium pyruvate; 2 mM L-glutamine; 4500 mg glucose/L; 1500 mg sodium bicarbonate/L). […] At the end of the incubation, the dish was placed on ice, and the cells were washed rapidly twice with cold PBS buffer (4° C.). For nuclear extracts, cells were lysed with buffer A (10 mM Tris, pH7.5; 1.5 mM MgCl2; 10 mM KCl and protease inhibitors and buffer C (0.5 M NaCl; 20 mM Tris pH7.5; 1.5 mM MgCl2; 20% glycerol and protease inhibitors), sequentially. The protease inhibitors used in the experiments were a cocktail of five protease inhibitors (500 mM AEBSF-HCl, 1 mg/ml Aprotinin, 1 mM E-64, 500 mM EDTA and 1 mM Leupeptin; Calbiochem NO 539131). For whole cell lysate, cells were lysed with 150 mM NaCl; 10 mM Tris ph7.5; 10 mM EDTA; 1% Triton X-100; 0.5% Deoxycholate, and protease inhibitors. The protein concentration was measured using a Bio-Rad protein assay. Equal amounts of protein were loaded on a SDS-PAGE gel. […] The specific protein was detected using a colorimetric substrate, and the intensity of each protein was quantified using an NIH image system.
# [3] = test system: actin, caspase 3, NF-kappabeta, Ikappabetaalpha; conditions: except at 800 microM concentration
# Protocol: Methods: Cells were plated at a density of 5×10^5 cells into a dish, and then maintained in 37° C. incubator (5% CO2) for 2 days. Prior to the assay, cells were rinsed twice with pre-warmed (37° C.) RPMI-1640 Medium (ATCC No. 30-2001; 10 mM HEPES; 1 mM sodium pyruvate; 2 mM L-glutamine; 4500 mg glucose/L; 1500 mg sodium bicarbonate/L). Cells were incubated with 2 mL culture medium in the absence or presence of lonidamine at different concentrations for 4 hours at 37° C. either under normoxia or hypoxia (oxygen level<0.1%). At the end of the incubation, the dish was placed on ice, and the cells were washed rapidly twice with cold PBS buffer (4° C.). For nuclear extracts, cells were lysed with buffer A (10 mM Tris, pH7.5; 1.5 mM MgCl2; 10 mM KCl and protease inhibitors and buffer C (0.5 M NaCl; 20 mM Tris pH7.5; 1.5 mM MgCl2; 20% glycerol and protease inhibitors), sequentially. The protease inhibitors used in the experiments were a cocktail of five protease inhibitors (500 mM AEBSF-HCl, 1 mg/ml Aprotinin, 1 mM E-64, 500 mM EDTA and 1 mM Leupeptin; Calbiochem NO 539131). For whole cell lysate, cells were lysed with 150 mM NaCl; 10 mM Tris ph7.5; 10 mM EDTA; 1% Triton X-100; 0.5% Deoxycholate, and protease inhibitors. The protein concentration was measured using a Bio-Rad protein assay. Equal amounts of protein were loaded on a SDS-PAGE gel. […]
# [4] = test system: advanced breast cancer; conditions: daily divided oral dose of 600 mg, cited from earlier work
# [5] = test system: metastatic breast cancer; conditions: addition of LND to epirubicin, factorial design; cited from earlier work
smiles,measurement,setting,value
"O=C(O)c1nn(Cc2ccc(Cl)cc2Cl)c2ccccc12 [lonidamine, 1-(2,4-dichlorobenzyl)-1H-indazole-3-carboxylic acid]",sensitivity of citrate-producing cells (LNCaP) to lonidamine treatment compared to citrate-oxidizing cells (PC3),"[1]; HIF-1alpha accumulation, LNCaP versus PC3",greater sensitivity
same,level of HIF-1alpha protein detected in nuclear (NE) and whole-cell extract (WCE) preparations,"[1]; LNCaP cells, hypoxic conditions (oxygen <0.1%), 4 hours, inhibition dose-dependent",reduced the level of HIF-1alpha protein
same,level of HIF-1alpha protein detected in nuclear (NE) and whole-cell extract (WCE) preparations,[2],reduced the level of HIF-1alpha protein
same,"inhibition of protein levels of actin, caspase 3, NF-kappabeta, or Ikappabetaalpha",[3],no detectable inhibition
same,minor response,[4]; 28 patients evaluable,11%
same,partial response (4-24+ months),[4]; 28 patients evaluable,11%
same,progressed,[4]; of 28 patients evaluable,20 patients
same,stable disease (greater than 3 months),[4]; of 28 patients evaluable,two
same,time to progression in metastatic breast cancer patients treated with epirubicin,[5],not improved

# Reference: US20060276527A1, “Combination therapies for the treatment of cancer” (Thresold Pharmaceuticals, Inc., priority 2003, published 2006)
